{"source": "patent US20190160093A1", "about": "“THERAPEUTIC AGENT FOR DISEASE ACCOMPANIED BY EPILEPTIC WAVES” (TAIYO NIPPON SANSO CORPORATION, priority 2010, published 2019)", "key": {"[1]": {"experiment": "Blood concentration, blood pH and blood bicarbonate ion after acetazolamide in GRY rats"}, "[2]": {"system": "epileptic model rat (GRY rat)", "experiment": "Electroencephalogram spike index of epileptic model rat (GRY rat)", "format": "in vivo", "conditions": "GRY rats", "source_text": "In the present Example, a GRY rat (groggy rat, Cacnala) was used as an epileptic model rat. A GRY rat constantly develops an epileptic seizure in normal conditions, and therefore is an extremely excellent system to evaluate a seizure by subjecting the GRY rat to a treatment. The GRY rat has a mutation in an al subunit of a P/Q-type voltage-dependent calcium channel Cav2.1 which encodes Cacnala gene, and is an epileptic model rat which mainly develops ataxia and absence seizure. The GRY rat takes a mode of autosomal recessive inheritance. The 752nd nucleotide “T” of the Cacnala gene has mutated to “A”. As a result, a codon “ATG” to specify methionine which is the 251st amino acid has mutated to a codon “AAG” to specify lysine (M251K). It has been reported that this mutation is located at extracellular p-loop forming a pore of a calcium channel domain 1 and that this mutation (M251K) results in abnormality of a function of the voltage-dependent calcium ion channel Cav2.1 of the rat (Reference Literatures 1 and 2). The GRY rats with this mutation show extension abnormalities of hind limbs, walking abnormalities, and ataxia, and a seizure which is accompanied with spike and wave discharges of 7-8 Hz on the electroencephalograms from 6-8 weeks of age. The present model rats were dispensed from Institute of Laboratory Animals, Graduate School of Medicine, Kyoto University.\nMale GRY rats were anesthetized by administering 35 mg/kg of pentobarbital sodium (Nembutal, Sumitomo Dainippon Pharma Co. Ltd.) intraperitoneally, and were fixed to a brain stereotaxic fixing apparatus (SR-5M, NARISHIGE Group). The head was shaved, the skin was incised along the median line, and the skull was exposed. A small hole was opened on the frontal lobe cortex and the occipital lobe cortex on both sides using a dental drill (FALCON, Morita Corporation). A stainless steel screw electrode (FUKUOKA RASHI) having a diameter of 0.9 mm and a length of 1.7 mm and connected a stainless steel wire having a diameter of 0.2 mm (M T Giken) was embedded in the hole (refer to FIG. 1). A screw electrode was embedded in the root of nose as a Z electrode, and a screw electrode was embedded in the cerebellum as an indifferent electrode. Each electrode was connected to a connector socket (Hirose Electric Co. Ltd.), and fixed to the skull with dental cement (Uni Fast II, GC Dental Products).\nThe rats placed in the multi-gas concentration control apparatus adjusted to a concentration of carbon dioxide of 5% (v/v), 7% (v/v), or 10% (v/v) were subjected to simultaneous video-electroencephalographic recording. Rats placed in the air were used as a control.\nElectroencephalograms of the frontal lobe cortex and the occipital lobe cortex of the rats were measured using an electroencephalograph (Neurofax EEG-1200, NIHON KOHDEN CORPORATION). A spike index was used as an index of evaluation of a seizure. The spike index represents a ratio of duration of a spike in measurement time (15 minutes). The spike means a waveform indicating a sharp change in potential in a short time (refer to FIG. 3).\nCarbon dioxide was administered to rats by placing the rats in the multi-gas concentration control apparatus adjusted to a concentration of carbon dioxide of 10% (v/v) (9 rats).\nBy placing the rats in the multi-gas concentration control apparatus, the rats were administered with 10% (v/v) carbon dioxide, and subjected to simultaneous video-electroencephalographic recording every 15 minutes for one hour, and an effect of suppressing an epileptic seizure (spike index) was measured before and after the administration of carbon dioxide.\nNext, electroencephalograms were measured."}, "[3]": {"system": "epileptic model rat (Kyo811 rat)", "experiment": "Electroencephalogram and seizure duration of Kyo811 rats with febrile seizures induced by thermal load", "format": "in vivo", "conditions": "febrile seizures by warm bath at 45° C., carbon dioxide 10% (v/v) vs normal air", "source_text": "In epilepsy, about 80% of patients of intractable Dravet syndrome (formerly, referred to as Severe Myoclonic Epilepsy in Infancy: SMEI), and about 5-10% of patients of benign generalized epilepsy with febrile seizure plus: GEFS+) have missense mutations in a voltage-dependent sodium channel a subunit type 1 (SCN1A) gene. Therefore, it is considered that the mutations in the SCN1A gene are involved in development of febrile seizures (Reference Literatures 3 and 4). In the present Reference Example, using the Kyo811 rats having a mutation in the Scn1a gene as a genetic factor, suppressive effect of seizure by carbon dioxide was examined. This rat is a febrile seizure model rat which induces febrile seizures by a thermal load, and a GEFS+ model rat.\nA Kyo811 rat was prepared as a rat with a mutation in the voltage-dependent sodium channel Scn1a gene by the following technology. […]\nAfter a one-week recovery period, the rats were put into a warm bath at 45° C. for about 3-4 minutes to induce febrile seizures, and electroencephalograms were measured.\nImmediately after the seizure was induced, the rats were placed in the multi-gas concentration control apparatus adjusted to the concentration of carbon dioxide of 10% (v/v) or the concentration of the normal air, and the situation of the seizure was observed while electroencephalograms were measured continuously. […]"}, "[4]": {"experiment": "Blood pH and blood gas of GRY rats placed in gas containing carbon dioxide or oxygen", "format": "in vivo, rat", "experimental": "In order to control a concentration of carbon dioxide, multi-gas incubator (MCO-5M; Sanyo Electric Co., Ltd.) was used as a multi-gas concentration control apparatus to adjust the concentration of carbon dioxide in the incubator. A concentration of oxygen was also adjusted for comparison. Main components of the normal dry air are 0.032% (v/v) of carbon dioxide, 20.946% (v/v) of oxygen, and 78.084% (v/v) of nitrogen. Therefore, using the above-described multi-gas concentration control apparatus, the concentration of carbon dioxide was set to 5% (v/v), 7% (v/v), or 10% (v/v), or the concentration of oxygen was set to 17% (v/v). When the concentration of carbon dioxide was adjusted, carbon dioxide gas supplied from a carbon dioxide gas bottle connected to the apparatus was diluted with the air outside. Therefore, carbon dioxide=10% (v/v), oxygen=about 18.85% (v/v), and nitrogen=about 70.28% (v/v). When the concentration of oxygen was set to 17% (v/v), similarly, the concentration was adjusted using nitrogen gas supplied from a nitrogen gas bottle connected to the apparatus. Therefore, carbon dioxide=0.026% (v/v), oxygen=about 17% (v/v), and nitrogen=about 82.974% (v/v). It was confirmed using a gas analyzer AGA-2008 (Astec Co. Ltd.) that each concentration in the incubator was correct under the set conditions.\nThe surgery of embedding an electrode for measurement of electroencephalograms was performed to eight male GRY rats (9 weeks old). After a one-week recovery period, the GRY rats were placed for one hour in the multi-gas concentration control apparatus adjusted to a concentration of carbon dioxide of 5% (v/v), 7% (v/v), or 10% (v/v), or a concentration of oxygen of 17% (v/v).\nBlood samples were collected from the tail vein of the rats placed in the multi-gas concentration control apparatus, and the blood pH and the blood concentration of carbon dioxide were measured using an i-STAT analyzer (Fuso Pharmaceutical Industries, Ltd.) as a blood gas analyzer.\nCarbon dioxide or oxygen was administered to rats by placing the rats in the multi-gas concentration control apparatus adjusted to a concentration of carbon dioxide of 10% (v/v) or a concentration of oxygen of 17% (v/v) for 15 minutes, 30 minutes, 45 minutes, or 60 minutes (5-6 rats for each). Rats placed in the multi-gas concentration control apparatus adjusted to a concentration of the normal air were used as a control."}, "[5]": {"experiment": "Blood pH of Kyo811 rats after febrile seizures and carbon dioxide", "format": "in vivo, rat", "conditions": "Kyo811 rats after febrile seizures, carbon dioxide 10% (v/v)", "experimental": "Immediately after the seizure was induced, the rats were placed in the multi-gas concentration control apparatus adjusted to the concentration of carbon dioxide of 10% (v/v) or the concentration of the normal air, and the situation of the seizure was observed while electroencephalograms were measured continuously.\nAs a control, the blood pH of the rats (10 rats) before induction of febrile seizures was measured. As a result, it was confirmed that the increase in the concentration of carbon dioxide to 10% (v/v) reduced the blood pH of the rats (FIG. 14)."}, "[6]": {"conditions": "cited from earlier work"}, "[7]": {"system": "8-11 days-old rats", "conditions": "rats in a chamber containing 5% carbon dioxide; cited from earlier work"}, "[8]": {"conditions": "50 mg/kg intraperitoneally, 15, 30, 45 and 60 minutes after the administration, saline control"}, "[9]": {"conditions": "10% (v/v) carbon dioxide for 15 to 60 minutes"}, "[10]": {"conditions": "carbon dioxide 5% (v/v), 7% (v/v) or 10% (v/v), one hour"}, "[11]": {"conditions": "concentration of oxygen 17% (v/v), one hour"}}, "note": "Read-outs that look alike come from different tables or passages of the source.", "data": [{"smiles": "CC(=O)Nc1nnc(S(N)(=O)=O)s1", "note": "[acetazolamide, Acetazolamide]", "values": [{"measurement": "time after administration of highest blood concentration of acetazolamide", "setting": "[1]; 50 mg/kg intraperitoneally", "value": 15, "unit": "min"}, {"measurement": "blood bicarbonate ion as compared with the control group", "setting": "[1]; [8]", "value": "significantly low"}, {"measurement": "blood pH as compared with the control group", "setting": "[1]; [8]", "value": "significantly low"}, {"measurement": "blood pH", "setting": "[1]; 30 minutes after the administration of 50 mg/kg", "value": "7.08±0.03"}, {"measurement": "spike duration of a seizure", "setting": "[2]; acetazolamide 50 mg/kg intraperitoneally, vs non-administration group", "value": "significantly suppresses"}]}, {"smiles": "O=C=O", "note": "[carbon dioxide]", "values": [{"measurement": "epileptiform discharges, duration of a spike", "setting": "[3]", "value": "suppressed significantly"}, {"measurement": "seizure duration (second)", "setting": "[3]", "value": "suppressed significantly"}, {"measurement": "blood concentration of carbon dioxide", "setting": "[4]; [9]", "value": "increased"}, {"measurement": "blood pH", "setting": "[4]; [9]", "value": "reduced"}, {"measurement": "blood concentration of carbon dioxide", "setting": "[4]; [10]", "value": "increased"}, {"measurement": "blood pH", "setting": "[4]; [10]", "value": "reduced"}, {"measurement": "blood pH", "setting": "[4]; environment of 10% (v/v) carbon dioxide", "value": 7.27}, {"measurement": "blood pH", "setting": "[5]", "value": "reduced"}, {"measurement": "effect of carbon dioxide gas in the air", "setting": "[6]; concentration of 1 to 2% (v/v)", "value": "causes discomfort"}, {"measurement": "effect of carbon dioxide gas in the air", "setting": "[6]; concentration of 3 to 4% (v/v)", "value": "stimulates the respiratory center"}, {"measurement": "effect of carbon dioxide gas in the air", "setting": "[6]; concentration of 6 to 7% (v/v)", "value": "makes breathing difficult"}, {"measurement": "effect of carbon dioxide gas in the air", "setting": "[6]; concentration of 7 to 10% (v/v)", "value": "causes unconsciousness in a few minutes"}, {"measurement": "time the effect of suppressing a seizure lasts after the administration", "setting": "[2]; 10% (v/v) carbon dioxide", "value": "≥ 30", "unit": "min"}, {"measurement": "average spike index (spike index for 15 minutes before administration assumed to be 1)", "setting": "[2]; 10% (v/v) carbon dioxide, 0-15 minutes", "value": 0.0074}, {"measurement": "average spike index (spike index for 15 minutes before administration assumed to be 1)", "setting": "[2]; 10% (v/v) carbon dioxide, 16-30 minutes", "value": 0.054}, {"measurement": "average spike index (spike index for 15 minutes before administration assumed to be 1)", "setting": "[2]; 10% (v/v) carbon dioxide, 31-45 minutes", "value": 0.275}, {"measurement": "average spike index (spike index for 15 minutes before administration assumed to be 1)", "setting": "[2]; 10% (v/v) carbon dioxide, 46-60 minutes", "value": 0.416}, {"measurement": "effect of suppressing a seizure", "setting": "[2]; 10% (v/v) carbon dioxide, 15 minutes after the administration", "value": "suppress a seizure almost completely"}, {"measurement": "epileptiform discharges, duration of a spike", "setting": "[2]; 10% (v/v) carbon dioxide, five minutes from 25 seconds after starting vs five minutes before administration", "value": "suppressed significantly"}, {"measurement": "epileptiform discharges, duration of a spike", "setting": "[2]; carbon dioxide 7% (v/v) or 10% (v/v), control rats in the air", "value": "suppressed significantly"}, {"measurement": "alkalosis in the brain", "setting": "[7]", "value": "can be suppressed"}]}, {"smiles": "O=O", "note": "[oxygen, reference compound]", "values": [{"measurement": "blood concentration of carbon dioxide", "setting": "[4]; [11]", "value": "reduced"}, {"measurement": "blood pH", "setting": "[4]; [11]", "value": "increased"}]}]}
